According to patent US6803233B2, “Model for Alzheimer's disease and other neurodegenerative diseases” (priority 2000, dated 2004):
Entries after “also recorded” stand apart in the source; their conditions may differ.

Columns and labels:
tangle-like formations = test: Electron microscopic immunogold analysis of cultured slices; type: cell-based, mouse; conditions: ZPAD 6 days
Experimental: Lowicryl resin-embedded ultrathin sections (of 70-80 nm thickness) were picked up on either pioloform-coated nickel slot grids or pioloform-coated 400 mesh nickel grids. The grids were incubated on drops of blocking solution, followed by incubation on drops of primary antibodies (AT8 or PHF-1). After the incubation with primary antibodies, the sections were washed in TBS (three times for 10 min each) and in 50 mM Tris-HCl, pH 7.4, containing 0.9% NaCl (“TBS*”; once for 10 min; TBS* has 50 mM Tris-HCl and 0.9% NaCl without KCl, while TBS has 25 mM Tris-HCl and KCl) ) and incubated on drops of goat anti-mouse IgG coupled to 10 nm gold particles (British BioCell Int.). The secondary antibodies were diluted 1:100 in TBS* containing 0.05% polyethylene glycol 20000 (BDH; Merck) and 1% gelatin for 2 hr at 28° C. After additional washing in TBS* (three times for 10 min each) and PBS (once for 10 min), the sections were post-fixed in 2% glutaraldehyde in PBS for 2 min at room temperature and then washed in bidistilled water (three times for 10 min each). Finally, the sections were contrasted with saturated aqueous uranyl acetate followed by staining with lead citrate. […]

MAPK (ERK1/2) = test: Immunoblot with anti-active MAPK in cultured hippocampal slices; type: cell-based; conditions: hippocampal slices; 6 days
caspase 3 = test: ELISA assay of caspase 3 activity in cultured hippocampal slices; type: cell-based; conditions: slices cultured 12 days, treated 6 days
Experimental: Hippocampal slices were cultured for 12 days and incubated with vehicle alone, ZPAD, or chloroquine (CQN; a lysosomal inhibitor) for 6 days (FIG. 28). Cultures were then homogenized, and subjected to an ELISA assay to detect the activity of caspase 3, an apoptotic protease.

Which “ultrastructure: intracellular inclusions” value (tangle-like formations) does the source give for “N-CBZ-L-phenylalanyl-L-alanine-diazomethyl-ketone [ZPAD]” here?
The value was “Numerous intracellular inclusions”.

And the “activated MAPK (ERK1/2)” value (MAPK (ERK1/2))?
Its value is “activated; also recorded: activation”.

And the “activity of caspase 3” value (caspase 3)?
Its value is “marked increase”.
